Results as given in EP1257544B1, “PIPERAZINE AND PIPERIDINE DERIVATIVES FOR TREATMENT OR PREVENTION OF NEURONAL DAMAGE” (VERTEX PHARMACEUTICALS INCORPORATED, priority 2000, dated 2001).
pEC50: −log10 of the molar value. Counter-ions that a name gives are not always drawn.

Each compound was assayed on Dissociated VM cells (assay: Neuroprotection Assay (NMDA-induced neuroexcitotoxic injury, high affinity 3H-dopamine uptake)). Conditions: embryonic day 15 rat ventral mesencephalic cultures, NMDA (100-400 µM) for 20 hours.
Format: cell-based, Sprague-Dawley rat
Text: The neuroprotective activity of the compounds of this invention may be assayed using rat embryo ventral mesencephalic cells in culture which are subsequently exposed to the glutamate receptor agonist NMDA. This assay is described in detail in the example section.
The ventral mesencephalic region was dissected out of embryonic day 15 Sprague-Dawley rat embryos (Harlan), dissociated into single cell suspension by a combination of trypsinization and trituration (Costantini et al., Neurobiol Dis., pp. 97-106 (1998). Dissociated VM cells were plated into poly-L-ornithine-coated 96-well plates at a density of 85,000 cells/well in 100 uL of DMEM supplemented with 18% heat-inactivated horse serum, 0.24% glucose, 2 mM glutamine and 50 u/ml pernicillin/streptomycin and incubated in a 5% CO2 incubator. After one day in culture (DIV1), the medium was replaced with 100 µL of a defined medium (DMEM supplemented with 1x N2 cocktail (Gibco-BRL), 0.12% glucose, 2 mM glutamine, and 50 units/ml penicillin/streptomycin) containing DMSO or various concentrations of the compounds of this invention. On DIV5, neuroexcitotoxic injury was induced by the addition of various concentrations of the glutamate receptor agonist NMDA (100-400 µM). Cultures were incubated with the neurotoxin for 20 hours and the effects of neurophilin compounds were assessed using high affinity ^3H-dopamine uptake according to a procedure published by Park and Mytilineou [Brain Res., 599, pp. 83-97 (1992)].

Structure (SMILES) | pEC50
CCN1CCCC[C@H]1C(=O)N1CCN(CCc2ccccc2)CC1 [Compound 74, ((2S)-1-Ethylpiperidin-2-yl)-(4-phenethylpiperazin-1-yl)-methanone dihydrochloride] | < 6.30
CCN1CCCC[C@H]1C(=O)N1CCN(Cc2ccc(OC)cc2)CC1 [Compound 75, ((2S)-1-Ethylpiperidin-2-yl)-[4-(4-methoxybenzyl)-piperazin-1-yl]-methanone] | < 6.30
CCN1CCCC[C@H]1C(=O)N1CCN(Cc2ccc(F)cc2)CC1 [Compound 76, ((2S)-1-Ethylpiperidin-2-yl)-[4-(4-fluorobenzyl)-piperazin-1-yl] methanone] | 6.30 to 7.00
CCN1CCCC[C@H]1C(=O)N1CCN(Cc2ccc(F)c(F)c2)CC1 [Compound 77, [4-(3,4-Difluorobenzyl)-piperazin-1-yl]-((2S) -1-ethylpiperidin-2-yl)-methanone] | 6.30 to 7.00
CCN1CCCC[C@H]1C(=O)N1CCN(C(=O)c2ccccc2)CC1 [Compound 78, [4-((2S)-1-Ethylpiperidine-2-carbonyl)-piperazin-1-yl]-phenyl methanone] | < 6.30
CCN1CCCC[C@H]1C(=O)N1CCN(C(=O)c2ccc(F)cc2)CC1 [Compound 79, ((2S)-1-Ethylpiperidin-2-yl)-[4-(4-fluorobenzoyl)-piperazin-1-yl] methanone hydrochloride] | 6.30 to 7.00
CCN1CCCC[C@H]1C(=O)N1CCN(S(=O)(=O)c2ccccc2)CC1 [Compound 80, (4-Benzenesulfonylpiperazin-1-yl)-((2S)-1-ethylpiperidin-2-yl)-methanone hydrochloride] | < 6.30
CCN1CCCC[C@H]1C(=O)N1CCN(S(=O)(=O)c2ccc(F)cc2)CC1 [Compound 81, ((2S)-1-Ethylpiperidin-2-yl)-[4-(4-fluorobenzenesulfonyl)-piperazin-1-yl]-methanone hydrochloride] | < 6.30
CCN1CCCC[C@H]1C(=O)N1CCC(=Cc2ccc(F)cc2)CC1 [Compound 84, ((2S)-1-Ethylpiperidin-2-yl)-[4-(4-fluorobenzylidene)piperidin-1-yl]-methanone hydrochloride] | > 7.00
O=C([C@@H]1CCCN1Cc1ccccc1)N1CCC(=Cc2ccc(F)cc2)CC1 [Compound 85, ((2S)-1-Benzylpyrrolidin-2-yl)-[4-(4-fluorobenzylidene)piperidin-1-yl] methanone hydrochloride] | > 7.00
O=C([C@@H]1CCCN1Cc1ccccc1)N1CCN(c2ccc(F)cc2)CC1 [Compound 86, ((2S)-1-Benzylpyrrolidin-2-yl)-[4-(4-fluorophenyl)piperazin-1-yl] methanone hydrochloride] | > 7.00
O=C([C@@H]1CCCN1Cc1ccccc1)N1CCN(Cc2ccc(F)cc2)CC1 [Compound 87, ((2S)-1-Benzyl-pyrrolidin-2-yl)-[4-(4-fluoro-benzyl)-piperazin-1-yl] methanone] | < 6.30
O=C(C1CC2CCN1CC2)N1CCC(Cc2ccc(F)cc2)CC1 (centres unmarked) [Compound 88, (1-Aza-bicyclo[2.2.2]oct-2-yl)-[4-(4-fluoro-benzyl)-piperidin-1-yl] methanone hydrochloride] | 6.30 to 7.00
CN1CCC=C(C(=O)N2CCC(Cc3ccc(F)cc3)CC2)C1 [Compound 89, [4-(4-Fluorobenzyl)piperidin-1-yl]-(1-methyl-1,2,5,6-tetrahydropyridin-3-yl) methanone hydrochloride] | 6.30 to 7.00
CN1CCCC(C(=O)N2CCC(Cc3ccc(F)cc3)CC2)C1 (centres unmarked) [Compound 90, [4-(4-Fluorobenzyl)piperidin-1-yl]-(1-methylpiperidin-3-yl) methanone hydrochloride] | > 7.00
CCN1CCCC[C@H]1CN1CCN(C(c2ccccc2)c2ccccc2)CC1 [Compound 100, 1-Benzhydryl-4-((2S)-1-ethylpiperidin-2-ylmethyl)-piperazine] | > 7.00
CCN1CCCC[C@H]1CN1CCC(Cc2ccccc2)CC1 [Compound 101, 4-Benzyl-1-((2S)-1-ethylpiperidin-2-ylmethyl)-piperidine] | > 7.00
